Results: patent publication US20090209536A1, “AMINOQUINAZOLINE CANNABINOID RECEPTOR MODULATORS FOR TREATMENT OF DISEASE” (KALYPSYS, INC., priority 2007, published 2009)
pEC50: −log10 of the molar value. Like-named read-outs stand apart in the source and are kept apart here.

Columns and labels:
[1] = biological target: T1, human cannabinoid receptor type 2 (Homo sapiens, UniProt P34972); assay: Human CB2 Radioligand Binding Assay; details: membranes from stably transfected CHO CB2 cells
T1 construct: expressed in transfected cells; membrane preparation
T1 sequence (P34972 whole entry): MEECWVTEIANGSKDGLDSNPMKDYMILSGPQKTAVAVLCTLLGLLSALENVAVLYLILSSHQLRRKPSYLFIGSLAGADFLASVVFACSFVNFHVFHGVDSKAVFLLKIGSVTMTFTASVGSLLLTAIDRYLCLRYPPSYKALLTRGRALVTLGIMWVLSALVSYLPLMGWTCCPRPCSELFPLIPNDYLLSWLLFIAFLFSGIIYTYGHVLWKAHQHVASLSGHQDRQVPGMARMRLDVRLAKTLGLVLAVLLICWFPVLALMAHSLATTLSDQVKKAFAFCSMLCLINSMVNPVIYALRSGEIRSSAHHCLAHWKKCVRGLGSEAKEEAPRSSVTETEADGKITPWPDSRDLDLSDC
Procedure, shortened: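 Filtration competition binding on membranes from CHO cells stably expressing human CB2, with [3H]CP-55,940 at its lot-specific Kd, in 50 mM Tris-HCl pH 7.4, EGTA, MgCl2, 5 mg/ml BSA, 1% DMSO; 90 min at 30° C. Compounds at 10 uM single point or dose-response; bound radioactivity by scintillation, 100 nM CP-55,940 as 100% efficacy.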

[2] = biological target: T2, human cannabinoid receptor type 1 (Homo sapiens, UniProt P21554); assay: Human CB1 Radioligand Binding Assay (basis of selectivity, CB2 vs. CB1); details: CB1: HEK 293 EBNA cells expressing human CB1; CB2: CHO CB2 membranes
T2 construct: purchased Perkin Elmer RBHCB1M; host or cells: HEK 293 EBNA cells
T2 sequence (P21554 whole entry): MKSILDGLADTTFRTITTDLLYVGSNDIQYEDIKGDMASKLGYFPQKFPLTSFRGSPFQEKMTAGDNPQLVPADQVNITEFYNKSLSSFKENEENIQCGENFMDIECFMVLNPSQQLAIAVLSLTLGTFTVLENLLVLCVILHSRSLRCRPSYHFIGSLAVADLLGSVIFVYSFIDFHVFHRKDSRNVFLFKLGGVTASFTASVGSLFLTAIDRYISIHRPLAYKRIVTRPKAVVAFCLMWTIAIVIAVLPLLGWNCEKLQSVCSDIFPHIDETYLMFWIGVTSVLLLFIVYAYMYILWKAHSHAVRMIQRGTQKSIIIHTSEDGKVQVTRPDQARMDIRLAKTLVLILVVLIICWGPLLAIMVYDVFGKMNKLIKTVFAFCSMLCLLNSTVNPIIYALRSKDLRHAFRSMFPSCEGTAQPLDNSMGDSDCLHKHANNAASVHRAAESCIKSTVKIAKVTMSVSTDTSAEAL
Description: 2. Human CB1 Radioligand Binding Assay
The incubation buffer was composed of 50 mM Tris-HCl pH 7.4, 2.5 mM EDTA, 5 mM MgCl2, 5.0 mg/ml fatty acid free BSA and the wash buffer was composed of 50 mM Tris-HCl pH 7.4, 2.5 mM EDTA, 5 mM MgCl2, 0.5 mg/ml fatty acid free BSA.

[3] = competition with [3H] CP-55,940, read-out: CB2 Ligand Binding Asssay EC50

| SMILES | pEC50 [1, 3] | Selectivity, CB2 vs. CB1 [2] | pEC50 ([1]; CB2 Ligand Binding Asssay EC50, competition with [3H] CP-55,940) |
| --- | --- | --- | --- |
| COC(CN(C)c1nc(-c2ccccc2Cl)nc2ccccc12)OC [Example 229, 2-(2-Chlorophenyl)-N-(2,2-dimethoxyethyl)-N-methylquinazolin-4-amine] | < 6.00 | − (− indicates ≦ 10−fold) |  |
| CCCOC(=O)N1CCN(c2nc(-c3ccccc3Cl)nc3cccc(Cl)c23)CC1 [Example 231, Propyl 4-(5-chloro-2-(2-chlorophenyl)quinazolin-4-yl)piperazine-1-carboxylate] | < 6.00 | − (− indicates ≦ 10−fold) |  |
| CCCC(=O)N1CCN(c2nc(-c3ccccc3Cl)nc3cccc(Cl)c23)CC1 [Example 232, 1-(4-(5-Chloro-2-(2-chlorophenyl)quinazolin-4-yl)piperazin-1-yl)butan-1-one] | > 6.00 | + (+ indicates > 10−fold) |  |
| CC(=O)N1CCN(c2nc(-c3ccccc3Cl)nc3cc(Cl)ccc23)CC1 [Example 233, 1-(4-(7-Chloro-2-(2-chlorophenyl)quinazolin-4-yl)piperazin-1-yl)ethanone] | > 6.00 | − (− indicates ≦ 10−fold) |  |
| CCOC(=O)N1CCN(c2nc(-c3ccccc3Cl)nc3cc(Cl)ccc23)CC1 [Example 234, Ethyl 4-(7-chloro-2-(2-chlorophenyl)quinazolin-4-yl)piperazine-1-carboxylate] | < 6.00 | − (− indicates ≦ 10−fold) |  |
| Clc1ccc2c(N3CCCC3)nc(-c3ccccc3Cl)nc2c1 [Example 235, 7-Chloro-2-(2-chlorophenyl)-4-(pyrrolidin-1-yl)quinazoline] |  | − (− indicates ≦ 10−fold) | < 6.00 |
| Clc1ccccc1-c1nc(N2CCNCC2)c2c(Cl)cccc2n1 [Example 236, 5-Chloro-2-(2-chlorophenyl)-4-(piperazin-1-yl)quinazoline] | < 6.00 | − (− indicates ≦ 10−fold) |  |
| CC(=O)N1CCN(c2nc(-c3ccccc3F)nc3cccc(Cl)c23)CC1 [Example 237, 1-(4-(5-Chloro-2-(2-fluorophenyl)quinazolin-4-yl)piperazin-1-yl)ethanone] | > 6.00 | + (+ indicates > 10−fold) |  |
| CCOC(=O)N1CCN(c2nc(-c3ccccc3F)nc3cccc(Cl)c23)CC1 [Example 238, Ethyl 4-(5-chloro-2-(2-fluorophenyl)quinazolin-4-yl)piperazine-1-carboxylate] | > 6.00 | + (+ indicates > 10−fold) |  |
| Fc1ccccc1-c1nc(N2CCCC2)c2c(Cl)cccc2n1 [Example 239, 5-Chloro-2-(2-fluorophenyl)-4-(pyrrolidin-1-yl)quinazoline] | > 6.00 | + (+ indicates > 10−fold) |  |
| CC(=O)N1CCN(c2nc(-c3ccccc3Cl)nc3cccc(C(F)(F)F)c23)CC1 [Example 240, 1-(4-(2-(2-Chlorophenyl)-5-(trifluoromethyl)quinazolin-4-yl)piperazin-1-yl)ethanone] | > 6.00 | + (+ indicates > 10−fold) |  |
| CCOC(=O)N1CCN(c2nc(-c3ccccc3Cl)nc3cccc(C(F)(F)F)c23)CC1 [Example 241, Ethyl 4-(2-(2-chlorophenyl)-5-(trifluoromethyl)quinazolin-4-yl)piperazine-1-carboxylate] | > 6.00 | + (+ indicates > 10−fold) |  |
| FC(F)(F)c1cccc2nc(-c3ccccc3Cl)nc(N3CCCC3)c12 [Example 242, 2-(2-Chlorophenyl)-4-(pyrrolidin-1-yl)-5-(trifluoromethyl)quinazoline] | > 6.00 | + (+ indicates > 10−fold) |  |
| COc1cccc2nc(-c3ccccc3Cl)nc(N3CCN(C(C)=O)CC3)c12 [Example 243, 1-(4-(2-(2-Chlorophenyl)-5-methoxyquinazolin-4-yl)piperazin-1-yl)ethanone] | > 6.00 | + (+ indicates > 10−fold) |  |
| CCOC(=O)N1CCN(c2nc(-c3ccccc3Cl)nc3cccc(OC)c23)CC1 [Example 244, Ethyl 4-(2-(2-chlorophenyl)-5-methoxyquinazolin-4-yl)piperazine-1-carboxylate] | > 6.00 | + (+ indicates > 10−fold) |  |
| COc1cccc2nc(-c3ccccc3Cl)nc(N3CCCC3)c12 [Example 245, 2-(2-Chlorophenyl)-5-methoxy-4-(pyrrolidin-1-yl)quinazoline] | > 6.00 | + (+ indicates > 10−fold) |  |
| CC(=O)N1CCN(c2nc(-c3ccccc3Cl)nc3cccc(F)c23)CC1 [Example 246, 1-(4-(2-(2-Chlorophenyl)-5-fluoroquinazolin-4-yl)piperazin-1-yl)ethanone] | > 6.00 | + (+ indicates > 10−fold) |  |
| CCOC(=O)N1CCN(c2nc(-c3ccccc3Cl)nc3cccc(F)c23)CC1 [Example 247, Ethyl 4-(2-(2-chlorophenyl)-5-fluoroquinazolin-4-yl)piperazine-1-carboxylate] | > 6.00 | + (+ indicates > 10−fold) |  |
| Fc1cccc2nc(-c3ccccc3Cl)nc(N3CCCC3)c12 [Example 248, 2-(2-Chlorophenyl)-5-fluoro-4-(pyrrolidin-1-yl)quinazoline] | > 6.00 | + (+ indicates > 10−fold) |  |
| COc1ccc2nc(-c3ccc(C(C)(C)C)cc3)nc(N3CCN(C(C)=O)CC3)c2c1 [Example 249, 1-(4-(2-(4-tert-Butylphenyl)-6-methoxyquinazolin-4-yl)piperazin-1-yl)ethanone] | > 6.00 | + (+ indicates > 10−fold) |  |
| CCOC(=O)N1CCN(c2nc(-c3ccc(C(C)(C)C)cc3)nc3ccc(OC)cc23)CC1 [Example 250, Ethyl 4-(2-(4-tert-butylphenyl)-6-methoxyquinazolin-4-yl)piperazine-1-carboxylate] | > 6.00 | + (+ indicates > 10−fold) |  |
| COc1ccc2nc(-c3ccc(C(C)(C)C)cc3)nc(N3CCCC3)c2c1 [Example 251, 2-(4-tert-Butylphenyl)-6-methoxy-4-(pyrrolidin-1-yl)quinazoline] | > 6.00 | + (+ indicates > 10−fold) |  |
| CCOC(=O)N1CCN(c2nc(-c3ccc(C(C)(C)C)cc3)nc3ccc(Cl)cc23)CC1 [Example 252, Ethyl 4-(2-(4-tert-butylphenyl)-6-chloroquinazolin-4-yl)piperazine-1-carboxylate] | < 6.00 | − (− indicates ≦ 10−fold) |  |
| CC(=O)N1CCN(c2nc(-c3ccc(Cl)cc3)nc3ccc(Cl)cc23)CC1 [Example 253, 1-(4-(6-Chloro-2-(4-chlorophenyl)quinazolin-4-yl)piperazin-1-yl)ethanone] | < 6.00 | − (− indicates ≦ 10−fold) |  |
| CC(=O)N1CCN(c2nc(-c3ccccc3Cl)nc3cccc(C)c23)CC1 [Example 254, 1-(4-(2-(2-Chlorophenyl)-5-methylquinazolin-4-yl)piperazin-1-yl)ethanone] | > 6.00 | − (− indicates ≦ 10−fold) |  |
| CCOC(=O)N1CCN(c2nc(-c3ccccc3Cl)nc3cccc(C)c23)CC1 [Example 255, Ethyl 4-(2-(2-chlorophenyl)-5-methylquinazolin-4-yl)piperazine-1-carboxylate] | > 6.00 | + (+ indicates > 10−fold) |  |
